Assay type in all cases: cell-based
The test system of assay [1] is Human colon cancer WiDr cells. The assay can be described thus: Inhibition of cell proliferation against human cancer cells (Alamar Blue), WiDr. The settings on record: 72 hours culture. The protocol: (§1) Human colon cancer WiDr cells or human leukemia K562 cells were inoculated into a 96-well test plate at a density of 5×10^3 cell/well and cultured at 37° C. in a […] incubator. Eighteen hours after the inoculation, the solvent (DMSO) diluted with the medium and various concentrations of the compound Q or R were added, and followed by further culture at 37° C. in a […] incubator for 72 hours. After the culturing, the proliferation of cells was measured with Alamar Blue (BIOSOURCE Co.). The measurement values for the conditions in which 0.1% DMSO and cells had been added, and 0.1% DMSO had been added and cells had not been added were assigned to be 0% inhibition and 100% inhibition, respectively, and the proliferation inhibition rate for each concentration of the compounds was obtained, then the concentration of inhibiting proliferation by 50% (IC50 value) was calculated by logistic regression.
On the technique in general: Resazurin is reduced to fluorescent resorufin, in cell work by metabolically active cells.

Assay [2] concerns human leukemia K562 cells. The experiment in a line: Inhibition of cell proliferation against human cancer cells (Alamar Blue), K562. The settings on record: 72 hours culture. As for the experimental part: as §1
In assay [3] the test system is acetylated histone H3 in K562 cells. The assay can be described thus: Effect on inducing histone acetylation against human cancer cells (Western blot, anti-acetylated histone H3). The settings on record: 0.3 to 30 nM, 24 hours, in comparison with the sample treated with solvent. The protocol:
After inoculating K562 cells into a 35 mm dish at a density of 1.5×10^6 cell/dish, the solvent (DMSO) and various concentrations (0.3 to 30 nM) of the compound Q or R were added and cultured at 37° C. in a […] incubator for 24 hours. Extraction of the histone protein was performed by the following method. To the cell precipitate collected by centrifugation, TEN buffer (10 mM Tris HCl (pH 8.0), 1 mM EDTA, 1% NP-40, 1 tablet/10 mL Complete mini (Roche Co.)) was added, stood on the ice for 10 minutes, and the supernatant was collected by centrifugation. The supernatant was mixed well with an equal amount of 0.4 M sulfuric acid, and stood on ice for 1 hour. The supernatant portion was collected by centrifugation, mixed with 5 times amount of acetone and stood at −20° C. for 12 hours or more. The precipitate was collected by centrifugation, washed once with acetone, and then the precipitate was dried. The precipitate was dissolved in distilled water, which was made to be histone protein, the protein concentration was determined by the Bradford method. […] For the primary antibody, an anti-acetylated histone H3 antibody (UPSTATE biotechnology Co.), for the secondary antibody, an HRP labeled anti-rabbit antibody (Amersham Pharmacia Biotech Co.) were used, and luminescence was detected by ECL (Amersham Pharmacia Biotech Co.).
For orientation: Immunoblotting shows a protein as a band on a membrane.

In general, IC50 refers to the midpoint of a concentration-inhibition curve. A low value points to inhibition by little substance.

As to `CC1NC(=O)CC2/C=C/CCSSSCC(NC1=O)C(=O)NC(C(C)C)C(O)CC(=O)O2` (stereo not drawn) [compound Q], the IC50 in assay [1] is 3 nM; in assay [2], 1.4 nM. For the same compound, the “bands of acetylated histone H3 (induction of histone acetylation)” value in assay [3] was “significant and dose-dependent bands of acetylated histone H3 were detected”.
For `CC1NC(=O)CC2/C=C/CCSSCC(NC1=O)C(=O)NC(C(C)C)C(O)CC(=O)O2` (stereo not drawn) [compound R], the results for the IC50 in assay [1] and in assay [2] were 0.9 nM and 0.6 nM, respectively. Further, the “bands of acetylated histone H3 (induction of histone acetylation)” value in assay [3] is “significant and dose-dependent bands of acetylated histone H3 were detected”.
